Measurements reported in patent publication US11834434B2, “Substituted 2-heteroaryloxypyridines and salts thereof and their use as herbicidal agents” (Bayer Aktiengesellschaft, priority 2018, dated 2023).

Columns and labels:
Type in all cases: in vivo
[1] = test system: Matricaria inodora (MATIN); experiment: Pre-emergence herbicidal action against Matricaria inodora; conditions: 1280 g/ha; scored visually after about 3 weeks vs untreated controls; 100% = plants have died, 0% = like control plants
Source text: (§1) Seeds of mono- and dicotyledonous weed plants were placed in plastic pots in sandy loam soil (doubly sown with in each case one species of mono- or dicotyledonous weed plants per pot) and covered with soil. The compounds of the invention, formulated in the form of wettable powders (WP) or as emulsion concentrates (EC), were then applied onto the surface of the covering soil as aqueous suspension or emulsion with addition of 0.5% additive at a water application rate of 600 liters per hectare (converted). After the treatment, the pots were placed in a greenhouse and kept under good growth conditions for the test plants. After about 3 weeks, the effect of the preparations was scored visually in comparison with untreated controls as percentages. For example, 100% activity=the plants have died, 0% activity=like control plants. Tables C1 to C8 below show the effects of selected compounds of the general formula (I) according to Table 1 on various harmful plants and an application rate corresponding to 1280 g/ha, which were obtained by the experimental procedure mentioned above.

[2] = test system: Poa annua (POAAN); experiment: Pre-emergence herbicidal action against Poa annua; conditions: 1280 g/ha; scored visually after about 3 weeks vs untreated controls; 100% = plants have died, 0% = like control plants
Source text: as §1

[3] = test system: Setaria viridis (SETVI); experiment: Pre-emergence herbicidal action against Setaria viridis; conditions: 1280 g/ha; scored visually after about 3 weeks vs untreated controls; 100% = plants have died, 0% = like control plants
Source text: as §1

[4] = test system: Amaranthus retroflexus (AMARE); experiment: Post-emergence herbicidal action against Amaranthus retroflexus; conditions: 1280 g/ha; rated visually after about 3 weeks vs untreated controls; 100% = plants have died, 0% = like control plants
Protocol: (§2) Seeds of mono- and dicotyledonous weed plants were placed in plastic pots in sandy loam soil (doubly sown with in each case one species of mono- or dicotyledonous weed plants per pot), covered with soil and cultivated in a greenhouse under controlled growth conditions. 2 to 3 weeks after sowing, the test plants were treated at the one-leaf stage. The compounds of the invention, formulated in the form of wettable powders (WP) or as emulsion concentrates (EC), were applied onto the green parts of the plants as aqueous suspension or emulsion with addition of 0.5% additive at a water application rate of 600 liters per hectare (converted). After the test plants had been kept in the greenhouse under optimum growth conditions for about 3 weeks, the activity of the preparations was rated visually in comparison to untreated controls. For example, 100% activity=the plants have died, 0% activity=like control plants. Tables B1 to B8 below show the effects of selected compounds of the general formula (I) according to Table 1 on various harmful plants and an application rate corresponding to 1280 g/ha, which were obtained by the experimental procedure mentioned above.

[5] = test system: Stellaria media (STEME); experiment: Pre-emergence herbicidal action against Stellaria media; conditions: 1280 g/ha; scored visually after about 3 weeks vs untreated controls; 100% = plants have died, 0% = like control plants
Source text: as §1

[6] = test system: Amaranthus retroflexus (AMARE); experiment: Pre-emergence herbicidal action against Amaranthus retroflexus; conditions: 1280 g/ha; scored visually after about 3 weeks vs untreated controls; 100% = plants have died, 0% = like control plants
Source text: as §1

[7] = test system: Abutilon theophrasti (ABUTH); experiment: Post-emergence herbicidal action against Abutilon theophrasti; conditions: 1280 g/ha; rated visually after about 3 weeks vs untreated controls; 100% = plants have died, 0% = like control plants
Protocol: as §2

[8] = test system: Stellaria media (STEME); experiment: Post-emergence herbicidal action against Stellaria media; conditions: 1280 g/ha; rated visually after about 3 weeks vs untreated controls; 100% = plants have died, 0% = like control plants
Protocol: as §2

[9] = test system: Lolium rigidum (LOLRI); experiment: Pre-emergence herbicidal action against Lolium rigidum; conditions: 1280 g/ha; scored visually after about 3 weeks vs untreated controls; 100% = plants have died, 0% = like control plants
Source text: as §1

[10] = test system: Poa annua (POAAN); experiment: Post-emergence herbicidal action against Poa annua; conditions: 1280 g/ha; rated visually after about 3 weeks vs untreated controls; 100% = plants have died, 0% = like control plants
Protocol: as §2

[11] = test system: Abutilon theophrasti (ABUTH); experiment: Pre-emergence herbicidal action against Abutilon theophrasti; conditions: 1280 g/ha; scored visually after about 3 weeks vs untreated controls; 100% = plants have died, 0% = like control plants
Source text: as §1

[12] = test system: Echinochloa crus-galli (ECHCG); experiment: Pre-emergence herbicidal action against Echinochloa crus-galli; conditions: 1280 g/ha; scored visually after about 3 weeks vs untreated controls; 100% = plants have died, 0% = like control plants
Source text: as §1

| SMILES | Pre-emergence action against Matricaria inodora (MATIN) [1] [%] | Pre-emergence action against Poa annua (POAAN) [2] [%] | Pre-emergence action against Setaria viridis (SETVI) [3] [%] | Post-emergence action against Amaranthus retroflexus (AMARE) [4] [%] | Pre-emergence action against Stellaria media (STEME) [5] [%] | Pre-emergence action against Amaranthus retroflexus (AMARE) [6] [%] | Post-emergence action against Abutilon theophrasti (ABUTH) [7] [%] | Post-emergence action against Stellaria media (STEME) [8] [%] | Pre-emergence action against Lolium rigidum (LOLRI) [9] [%] | Post-emergence action against Poa annua (POAAN) [10] [%] | Pre-emergence action against Abutilon theophrasti (ABUTH) [11] [%] | Pre-emergence action against Echinochloa crus-galli (ECHCG) [12] [%] |
| --- | --- | --- | --- | --- | --- | --- | --- | --- | --- | --- | --- | --- |
| Fc1ccc(Sc2cccnc2Oc2ncc(F)cn2)cc1 [Example I-154] | 100 | 100 | 100 | 100 | 100 | 100 | – | – | – | – | – | – |
| Fc1cnc(Oc2ncccc2Sc2ccc(F)cc2F)nc1 [Example I-156] | 90 | 100 | 90 | 100 | 100 | 100 | 100 | 100 | – | – | – | – |
| Cc1ccc(Cc2ccc(F)cc2F)c(Oc2ncc(Cl)cn2)n1 [Example I-400] | 90 | 100 | 100 | – | 100 | 90 | – | – | – | – | – | – |
| Cc1ccc(Cc2ccc(C)nc2Oc2ncc(Cl)cn2)cc1 [Example I-405] | – | – | 100 | – | 100 | 100 | – | – | – | – | – | – |
| COc1cc(Cc2ccc(C)nc2Oc2ncc(Cl)cn2)ccc1F [Example I-406] | 100 | 100 | 100 | 90 | 100 | 90 | – | 90 | 90 | 90 | – | – |
| Cc1ccc(Cc2ccccc2)c(Oc2ncc(F)cn2)n1 [Example I-430] | 100 | 100 | 100 | 90 | 100 | 100 | – | 100 | 90 | 90 | 100 | 100 |
| Cc1ccc(Cc2ccc(C)nc2Oc2ncc(F)cn2)cc1 [Example I-438] | 100 | – | – | 90 | 100 | – | – | 90 | – | – | 90 | – |
| COc1cc(Cc2ccc(C)nc2Oc2ncc(F)cn2)ccc1F [Example I-439] | – | 100 | 100 | – | 100 | 90 | – | 90 | – | – | 100 | 100 |
| Cc1ccc(Cc2ccccc2)c(Oc2ncccn2)n1 [Example I-441] | 100 | 100 | 100 | 100 | 100 | 100 | – | 100 | 90 | – | 100 | 100 |
